Values of other authors as cited in US8535699B2, “Insect-repelling resin composition and extended-release insect-repelling resin molded product obtained therefrom” (Sumika Life Tech, Limited, priority 2009, dated 2013).

Conditions: at 20° C.

| SMILES | Vapour pressure |
| --- | --- |
| CC(C)=CC1C(C(=O)OCc2cccc(Oc3ccccc3)c2)C1(C)C (centres unmarked) [Phenothrin] | 1.2×10^−6 mmHg |
| CCOP(=O)(OCC)OCC [Triethyl phosphate] | 0.3 mmHg |
